Experimental data taken from PubChem BioAssay (NCI).
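Test compounds were applied to cells in 96-well plates for 48 hours at 5 doses. Definition used: TGI = concentration required for complete inhibition of growth.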

How the values were obtained:
Assay in all cases: NCI tumour cell line growth inhibition, 48 h
MDA-N = tested on: MDA-N
UO-31 renal = tested on: UO-31 renal
NCI-H23 lung = tested on: NCI-H23 lung
M14 melanoma = tested on: M14 melanoma
A549 NSCLC = tested on: A549 NSCLC
T-47D breast = tested on: T-47D breast
SF-539 CNS = tested on: SF-539 CNS
HS 578T breast = tested on: HS 578T breast
HOP-92 NSCLC = tested on: HOP-92 NSCLC
NCI/ADR-RES ovarian = tested on: NCI/ADR-RES ovarian

SMILES	TGI (MDA-N)	TGI (UO-31 renal)	TGI (NCI-H23 lung)	TGI (M14 melanoma)	TGI (A549 NSCLC)	TGI (T-47D breast)	TGI (SF-539 CNS)	TGI (HS 578T breast)	TGI (HOP-92 NSCLC)	TGI (NCI/ADR-RES ovarian)
CC(C)(C)OC(=O)c1ccc(NCC2=C(Br)C(=O)C=CC2=O)cc1	48.1 µM	28.6 µM	50.6 µM	85.4 µM	> 100 µM	41.4 µM	52.8 µM	67.3 µM	28.4 µM	62.9 µM
Cc1nc(Nc2ccccc2Cl)sc1C(=O)CC(=O)C(N)=O	> 100 µM	> 100 µM	> 100 µM	> 100 µM	> 100 µM	> 100 µM	> 100 µM	> 100 µM	> 100 µM	> 100 µM
COC1=CC(=O)N(C)C(O)C1(C#N)OC1OC(CO)C(O)C(O)C1O (stereo not given)	> 100 µM	> 100 µM	> 100 µM	> 100 µM	> 100 µM	> 100 µM	> 100 µM	> 100 µM	> 100 µM	> 100 µM
CCNc1cc2c3c(c1)CCN3CCC2	> 10 µM	> 10 µM	> 10 µM	> 10 µM	> 10 µM	> 10 µM	> 10 µM	> 10 µM	> 10 µM	> 10 µM
Cc1ccccc1NC(=O)CC(=O)NNC(Sc1ccccc1)c1cc(N=Nc2ccc(Br)cc2)ccc1O (stereo not given)	> 10 µM	> 10 µM	> 10 µM	2.63 µM	> 10 µM	> 10 µM	4.73 µM	> 10 µM	> 10 µM	9.08 µM
CC1CCC2(OC1)OC1C(O)C3C4CCC5CC(OC6OC(CO)C(OC7OC(CO)C(O)C(OC8OCC(O)C(O)C8O)C7OC7OC(CO)C(O)C(OC8OC(CO)C(O)C(O)C8O)C7O)C(O)C6O)C(O)CC5(C)C4CCC3(C)C1C2C (stereo not given)	7.94 µM	3.66 µM	4.41 µM	24.9 µM	4.32 µM	10.4 µM	10.9 µM	4.5 µM	26.5 µM	13.6 µM
CCOC(=O)Nc1ccc(S(=O)(=O)Nn2cnnc2)cc1	73.9 µM	> 100 µM	> 100 µM	> 100 µM	> 100 µM	> 100 µM	65.1 µM	> 100 µM	> 100 µM	> 100 µM
